Tests used:
[1] = target: SHP2 (Homo sapiens (Human), UniProt Q06124); assay: SHP2 allosteric inhibitory enzyme activity assay (DiFMUP fluorescence); assay type: biochemical; details: read-out: SHP2 enzymatic activity IC50
Text: Example A: SHP2 Allosteric Inhibitory Enzyme Activity Assay
SHP2 is allosterically activated by binding of a bis-tyrosyl-phosphorylated peptide to its Src homology 2 (SH2) domain. This later activation step results in the release of the autoinhibitory interface of SHP2, which in turn activates the SHP2 protein tyrosine phosphatase (PTP) and is available for substrate recognition and reaction catalysis. The catalytic activity of SHP2 was monitored using the surrogate DiFMUP in a rapid fluorescence assay format.
experiment procedure: • (1) Compound preparation: • The compounds of the present invention (10 mM stock solution) were diluted to appropriate times with 100% DMSO, and the final test concentrations of the compounds of the present invention were 10 µM, 3.3333 µM, 1.1111 µM, 0.3704 µM, 0.1235 µM, 0.0412 µM, 0.0137 µM, 0.0046 µM, 0.0015 µM, 0.00 µM; • (2) Prepare the enzyme reaction working solution: • Perform SHP2 enzymatic assays in 96-well black polystyrene plates (flat bottom, low flange, non-binding surface) (Perki Elmer, Cat#6005270) at room temperature using a final reaction volume of 50 µL and the following assay buffer conditions: 60 mM HEPES, 75 mM NaCl, 75 mM KCl, 0.05% BRIJ-35, 1 mM EDTA, 5 mM DTT. • (3) Enzyme-catalyzed reaction and data monitoring: • Add the compound of the present invention to the corresponding 96-well plate, and set the blank test well without compound and enzyme only with buffer. Thaw SHP2 Activating Peptide (IRS1_pY1172(dPEG8)pY1222) on ice, add 25 µM to each well, then add 0.2 ng of SHP2 protein sample to the corresponding well plate and incubate at room temperature for 1 hour. The surrogate substrate DiFMUP (Invitrogen, Cat #D6567) was added to the reaction and allowed to react for 1 hour at room temperature. Fluorescence signals were monitored using a microplate reader (Envision, Perki Elmer) using excitation and emission wavelengths of 340 nm and […], respectively. • (4) Data analysis: • Calculation Formula: • [formula]
Among them: Conversion_sample is the conversion rate reading of the sample; Conversion_min is the average value of blank control wells, representing the conversion rate readings of wells without enzymatic activity; Conversion_max is the mean ratio of positive control wells, representing the conversion rate readings of wells without compound inhibition. The log(inhibitor) vs. response-Variable slope of the analysis software GraphPad Prism was used to fit the dose-response curve, and the IC50 value of the compound for the enzymatic activity was calculated.

[2] = tested on: leukemia cells MV-4-11; assay: Cell proliferation assay, CELL TITER-GLO (CTG) luminescence, MV-4-11; assay type: cell-based
Experimental: (§1) Example B: Cell Proliferation Assay
(§2) The effects of the compounds of the invention on the proliferation of leukemia cells MV-4-11 and lung cancer cells NCI-H358 were evaluated using in vitro cell assays. The detection method used in the experiment is the CELL TITER-GLO (CTG) luminescence method, which can detect the number of viable cells by quantifying ATP. Because ATP participates in a variety of enzymatic reactions in vivo, it is an indicator of the metabolism of living cells, and its content directly reflects the number and state of cells. During the experiment, CellTiter-Glo™ reagent was added to the cell culture medium to measure the luminescence value. The value is proportional to the amount of ATP, and ATP is positively related to the number of living cells, so the cell viability can be examined by detecting the ATP content.
(§3) experiment procedure: • (1) Cell plating: • Take a bottle of MV-4-11 cells in logarithmic growth phase, resuspend the cells by centrifugation and count them. After adjusting the cell density, they were seeded into a 96-well plate (Corning #3917). After culturing in a 5% CO2 incubator for 24 hrs, the compound of the present invention was added for treatment; • Take a bottle of NCI-H358 cells in logarithmic growth phase, digest and resuspend the cells, count them, adjust the cell density, and inoculate them into a 96-well transparent ultra-low adsorption cell culture plate (Corning #3474), inoculate 2000 cells per well. The plate was placed in an incubator at 37° C. and 5% CO2 for 24 hrs, and then the compound of the present invention was added for treatment; • (2) Cell compound treatment: • An appropriate amount of the compound of the present invention was prepared for cell treatment. The final concentration of the compound from high to low was 1000 nM, 333.3 nM, 111.1 nM, 37.04 nM, 12.35 nM, 4.115 nM, 1.372 nM, 0.4572 nM, 0.1524 nM, and 0 nM. The plate was placed in a 37° C., 5% CO2 incubator for 120 hrs. Only adding medium without cell wells was set as the blank group; the group with compound concentration of 0 nM was the zero-adjusting group. • (3) CTG detection: • After NCI-H358 cells were cultured for 96 hrs, 50 µL of CellTiter-Glo® Luminescent Cell Viability Assay solution was added to each well, shaken gently for 2 mins, and incubated at room temperature for 10 mins. The cell reaction system was transferred to a white-bottomed 96-well plate. Read the detection value of each well on a multi-function microplate reader. • After MV-4-11 cells were cultured for 120 hrs, 50 µL of CellTiter-Glo® Luminescent Cell Viability Assay solution was added to each well, gently shaken for 2 mins, and incubated at room temperature for 10 mins. Check the value. • (4) Data analysis: • Calculate the inhibition rate from the luminescence value readings, • [formula]
(§4) The log(inhibitor) vs. response-Variable slope of GraphPad Prism was fitted to dose-response curves and IC50s of compounds that inhibited cell proliferation were calculated.

[3] = tested on: lung cancer cells NCI-H358; assay: Cell proliferation assay, CELL TITER-GLO (CTG) luminescence, NCI-H358; assay type: cell-based; details: cultured for 96 hrs
Experimental: as §1, §2, §3, §4

[4] = Homo sapiens, MV4-11, cultured for 120 hrs
[5] = Homo sapiens, NCI-H358, ultra-low adsorption plate

SMILES | IC50 [1] [nM] | IC50 [2, 4] [nM] | IC50 [3, 5] [nM] | IC50 ([2]; cultured for 120 hrs) [nM] | IC50 ([3]; ultra-low adsorption plate) [nM]
CC(=O)N1CCN(c2ccc(OCC#Cc3cnc(N4CCC5(CC4)Cc4ccccc4[C@H]5N)c(CO)n3)cc2)CC1 [Compound A21, (S)-1-(4-(4-(3-(5-(1-amino-1,3-dihydrospiro [indene-2,4 ‘-piperidine]-1′-yl) -6-(hydroxymethyl)pyrazin-2-yl)prop-2-yn-1-yl)oxy)piperazin-1-yl)ethane-1-one] | 2.1 |  |  | 11 | 12
COc1ccc(NCC#Cc2cnc(N3CCC4(CC3)Cc3ccccc3[C@H]4N)c(CO)n2)cc1OC [Compound A47, (S)-(3-(1-amino-1,3-dihydrospiro [indene-2,4′-piperidin]-1′-yl)-6-(3-((3,4-dimethoxyphenyl)amino)prop-1-yn-1-yl)pyrazin-2-yl)] | 4 |  |  | 17 | 48
N[C@@H]1c2ccccc2CC12CCN(c1ncc(C#CCNc3ccc(C(F)(F)F)nc3)nc1CO)CC2 [Compound A63, (S)-(3-(1-amino-1,3-dihydrospiro[indene-2,4′-piperidin]-1′-yl)-6-(3-( (6-(trifluoromethyl)pyridin-3-yl)amino)prop-1-yn-1-yl)pyrazin-2-yl)methanol] | 5 | 11 | 36 |  | 
CC(=O)Nc1cccc(NCC#Cc2cnc(N3CCC4(CC3)Cc3ccccc3[C@H]4N)c(CO)n2)c1 [Compound A65, (S)-N-(3-((3-(5-(1-amino-1,3-dihydrospiro[indene-2,4′-piperidin]-1′-yl)-6-(hydroxylmethyl)pyrazin-2-yl)prop-2-yn-1-yl)amino)phenyl)a cetamide] | 3.5 | 2.8 | 25 |  | 
N[C@@H]1c2ccccc2CC12CCN(c1ncc(C#CCOc3ccc(O)cn3)nc1CO)CC2 [Compound A75, (S)-6-((3-(5-(1-amino-1,3-dihydrospiro[indene-2,4′-piperidin]-1′-yl)-6-(hydroxymethyl)pyrazin-2-yl)prop-2-yn-1-yl)oxy)pyridin-3-ol] | 7.8 | 7.3 | 78 |  | 
N[C@@H]1c2ccccc2CC12CCN(c1ncc(C#CCOc3ccc(C(=O)NC4CC4)cc3)nc1CO)CC2 [Compound A76, (S)-4-((3-(5-(1-amino-1,3-dihydrospiro[indene-2,4′-piperidin]-1′-yl)-6-(hydroxymethyl)pyrazin-2-yl)prop-2-yn-1-yl)oxy)-N-cyclopropyl benzamide] | 3.4 |  |  | 3.3 | 19
Cn1nccc1Nc1ccc(OCC#Cc2cnc(N3CCC4(CC3)Cc3ccccc3[C@H]4N)c(CO)n2)cc1 [Compound A77] | 5.9 |  |  | 11 | 36

The next lines start with results.

IC50 [1] [nM] | IC50 [2, 4] [nM] | IC50 [3, 5] [nM] | SMILES | IC50 ([2]; cultured for 120 hrs) [nM] | IC50 ([3]; ultra-low adsorption plate) [nM]
3.3 | 2.1 | 3.8 | CC(=O)Nc1ccc(OCC#Cc2cnc(N3CCC4(CC3)Cc3ccccc3[C@H]4N)c(CO)n2)cc1 [Compound A08, (S)-N-(4-((3-(5-(1-amino-1,3-dihydrospiro [indene-2,4′-piperidine]-1′-yl) -6-(hydroxymethyl)pyrazin-2-yl)prop-2-yn-1-yl)oxy)phenyl) acetamide] |  | 
0.9 | 2.6 | 4.9 | COc1ccc(OCC#Cc2cnc(N3CCC4(CC3)Cc3ccccc3[C@H]4N)c(CO)n2)cc1 [Compound A09, (S)-(3-(1-amino-1,3-dihydrospiro [indene-2,4′-piperidine]-1′-yl)-6-(3-(4-methoxyphenoxy)prop-1-yn-1-yl)pyrazin-2-yl) methanol] |  | 
1.4 | 6.7 | 8.5 | COc1cc(OCC#Cc2cnc(N3CCC4(CC3)Cc3ccccc3[C@H]4N)c(CO)n2)ccn1 [Compound A49, (S)-(3-(1-amino-1,3-dihydrospiro[indene-2,4′-piperidin]-1′-yl)-6-(3-((2-methoxypyridine-4-yl)oxy)prop-1-yn-1-yl)pyrazin-2-yl)methanol] |  | 
1.6 | 1.5 | 4.6 | N[C@@H]1c2ccccc2CC12CCN(c1ncc(C#CCOc3ccc4c(c3)CCNC4=O)nc1CO)CC2 [Compound A52, (S)-6-((3-(5-(1-amino-1,3-dihydrospiro[indene-2,4′-piperidin]-1′-yl)-6-(hydroxymethyl)pyrazin-2-yl)prop-2-yn-1-yl)oxy)-3,4-dihydroisoquinolin-1(2H)-one] |  | 
3.3 | 8.1 | 27 | N#Cc1cccc(OCC#Cc2cnc(N3CCC4(CC3)Cc3ccccc3[C@H]4N)c(CO)n2)c1 [Compound A53, (S)-3-((3-(5-(1-amino-1,3-dihydrospiro[indene-2,4′-piperidin]-1′-yl)-6-(hydroxymethyl)pyrazin-2-yl)prop-2-yn-1-yl)oxy)benzonitrile] |  | 
1.5 | 0.8 | 4 | COc1ccc2c(c1)[C@@H](N)C1(CCN(c3ncc(C#CCOc4ccc(C(N)=O)cc4)nc3CO)CC1)C2 [Compound A58, (S)-4-((3-(5-(1-amino-6-methoxy-1,3-dihydrospiro[indene-2,4′-piperidin]-1′-yl)-6-(hydroxymethyl)pyrazin-2-yl)prop-2-yn-1-yl)oxy)benzamide] |  | 
2.1 | 8.6 | 26 | CNc1ncc(OCC#Cc2cnc(N3CCC4(CC3)Cc3ccccc3[C@H]4N)c(CO)n2)cn1 [Compound A68, (S)-(3-(1-amino-1,3-dihydrospiro[indene-2,4′-piperidin]-1′-yl)-6-(3-( (2-(methylAmino)pyrimidin-5-yl)oxy)prop-1-yn-1-yl)pyrazin-2-yl) methanol] |  | 
3.1 | 1.1 | 3.4 | Cc1nc2cc(OCC#Cc3cnc(N4CCC5(CC4)Cc4ccccc4[C@H]5N)c(CO)n3)ccc2[nH]1 [Compound A73, (S)-(3-(1-amino-1,3-dihydrospiro[indene-2,4′-piperidin]-1′-yl)-6-(3-( (2-methyl-1H-Benzo[d]imidazol-5-yl)oxy)prop-1-yn-1-yl)pyrazin-2-yl)methanol] |  | 
1.1 | 1.7 | 6.4 | Cc1cc(OCC#Cc2cnc(N3CCC4(CC3)Cc3ccccc3[C@H]4N)c(CO)n2)ccc1C(N)=O [Compound A74, (S)-4-((3-(5-(1-amino-1,3-dihydrospiro[indene-2,4′-piperidin]-1′-yl)-6-(hydroxymethyl)pyrazin-2-yl)prop-2-yn-1-yl)oxy)-2-methylbenzamide] |  | 

— patent US20230339882A1, “SHP2 INHIBITOR AND COMPOSITION AND APPLICATION THEREOF” (Betta Pharmaceuticals Co., Ltd., priority 2020, published 2023)
